SMILES strings stand for the structures.

In assay [1] the target is T1, System xc− (Homo sapiens, UniProt Q9UPY5).
T1 construct: in vitro culture system of human glial cells from brain astrocytoma (1321N1); endogenous in cells; host or cells: 1321N1 human astrocytoma cells
T1 sequence (Q9UPY5 1-501): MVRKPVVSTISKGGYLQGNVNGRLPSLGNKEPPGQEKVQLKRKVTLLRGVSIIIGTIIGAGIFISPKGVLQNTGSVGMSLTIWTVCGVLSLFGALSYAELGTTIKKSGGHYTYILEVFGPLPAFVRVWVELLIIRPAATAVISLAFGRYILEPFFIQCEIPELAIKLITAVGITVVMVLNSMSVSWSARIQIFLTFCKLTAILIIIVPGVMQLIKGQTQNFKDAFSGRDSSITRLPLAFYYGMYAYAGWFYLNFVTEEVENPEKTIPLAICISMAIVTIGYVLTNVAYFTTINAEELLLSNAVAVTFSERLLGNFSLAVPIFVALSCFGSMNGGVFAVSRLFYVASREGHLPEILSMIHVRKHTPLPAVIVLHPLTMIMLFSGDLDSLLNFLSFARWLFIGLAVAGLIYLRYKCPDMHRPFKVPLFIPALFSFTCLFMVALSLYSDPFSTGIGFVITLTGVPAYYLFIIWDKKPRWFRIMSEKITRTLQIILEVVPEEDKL
T1 sequence (P08195 1-529 partner): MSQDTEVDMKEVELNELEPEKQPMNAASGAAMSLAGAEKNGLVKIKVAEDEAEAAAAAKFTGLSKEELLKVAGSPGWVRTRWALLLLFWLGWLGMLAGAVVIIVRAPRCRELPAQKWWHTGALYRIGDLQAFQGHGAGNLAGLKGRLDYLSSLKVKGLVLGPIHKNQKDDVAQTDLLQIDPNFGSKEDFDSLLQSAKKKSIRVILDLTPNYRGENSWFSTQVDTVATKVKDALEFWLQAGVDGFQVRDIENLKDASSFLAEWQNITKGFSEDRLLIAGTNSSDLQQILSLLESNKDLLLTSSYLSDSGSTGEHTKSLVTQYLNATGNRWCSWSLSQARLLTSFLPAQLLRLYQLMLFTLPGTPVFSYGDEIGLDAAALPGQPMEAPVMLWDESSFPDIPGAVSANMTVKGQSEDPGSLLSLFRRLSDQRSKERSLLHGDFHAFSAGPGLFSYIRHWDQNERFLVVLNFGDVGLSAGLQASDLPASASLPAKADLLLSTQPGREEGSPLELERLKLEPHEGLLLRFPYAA
As to the kind of experiment: 3H-glutamate release from human glial cells from brain astrocytoma (1321N1). Type of assay: cell-based. The conditions noted are these: 1321N1 cells. The procedure:
This assay also uses the cell culture system of human glial cells from brain astrocytoma (1321N1) described above. Initially, cells are washed with HBBSS, and ^3H-glutamate is added (PerkinElmer: 1 mCi/mL stock solution is diluted (30 μL+500 HBBSS) and 10 μL of diluted radiolabel is added to each well). Following a 1 hour incubation to load the cells with the labeled glutamate, the cells are washed again with HBBSS, and the drug is added. At 30, 90, and 180 minutes, 50 μL of extracellular media is sampled from each well and is measured using a Beckman LS 6500 scintillation counter.

Assay [2] relates to mixed cortical cell cultures containing glial and neuronal cells. As to the kind of experiment: In vitro thiol experiment: intracellular cysteine levels. Type of assay: cell-based, mice. The note with it: 30 minutes; for intracellular cysteine concentration: raw concentration in collected samples. The procedure:
To further resolve by what process the inhibition of ^14C-cystine uptake is occurring intracellular cysteine levels were determined.
Mixed cortical cell cultures containing glial and neuronal cells were prepared from fetal (15-16 day gestation) mice as previously described. (Lobner D, “Comparison of the LDH and MTT assays for quantifying cell death: validity for neuronal apoptosis?,” J. Neurosci. Methods, 96(2): 147-152 (Mar. 15, 2000)). Dissociated cortical cells were plated on 24-well plates coated with poly-D-lysine and laminin in Eagles' Minimal Essential Medium (MEM, Earle's salts, supplied glutamine-free) supplemented with 5% heat-inactivated horse serum, 5% fetal bovine serum, 2 mM glutamine and glucose (total 21 mM). Cultures were maintained in humidified 5% CO2 incubators at 37° C. Mice were handled in accordance with a protocol approved by our institutional animal care committee and in compliance with the Public Health service Policy on Humane Care and Use of Laboratory Animals.
Mixed cortical cell cultures, 14 days in vitro (this allows for a confluent layer of astrocytes to form and the neurons to generate a complex network of axons and dendrites), were washed into bicarbonate buffered salt solution. After 1 hour, 3, 10, 30, 100 μM of Pro-4047 or Pro-4051 was added and the cells were incubated for 30 or 90 minutes, after which the cells were thoroughly washed and the collected in 250 μL of aqueous mobile phase (50 mM citric acid, 10 mM octanesulfonic acid, pH 2.8) was added, after 10 minutes at 37° C. the cells were scraped from the plates and transferred to 1.5 mL tubes for analysis.
Samples were then sonicated with a Fisher Scientific 60 Sonic Dismembrator. One fraction of this homogenate was analyzed with the Pierce BCA (bicinchoninic acid) method to determine protein concentration. The other fraction was filtered using 3 K molecular weight cutoff, polyethersulfone centrifugal protein filters, and analyzed for thiol content using HPLC (ALF-115 column, 150×1.0 mm, 3 μm C18 [Pro-2023 analysis utilized a Phenomenex Kinetex 2.6 μM, C18, 100 A, 150×2.1 mm and Pro-4047 analysis utilized a Phenomenex Kinetex X-B, C18, 100 A, 2.6 μm, 150×4.4 mm]; mobile phase: 50 mM citric acid, 10 mM octanesulfonic acid, 2% acetonitrile, pH 2.8, 50 μL/min flow rate [Pro-2023 analysis utilized a 100 μL/min flow rate and Pro-4047 analysis utilized 1% acetonitrile and 0.4 mL/min flow rate] with electrochemical detection (Decade II, Au working electrode, Flex Cell HyREF, 0.55V, Antec Leyden, Netherlands [Pro-4047 analysis utilized a Magic Diamond working electrode and 1.8V]).
When the intracellular thiol assay was initiated, all data was normalized to protein concentration. […] The data presented herein represents the raw cysteine concentrations in the collected samples. […] Pro-4006 at 10 μM increases intracellular cysteine concentration to 0.07 μM at 30 minutes (approximately 3.5 times that of the control; FIG. 11). […] Pro-4047 at 300 μM increases intracellular cysteine concentration to 0.74 μM at 90 minutes (approximately 4.9 times that of the control; FIG. 13). […] Thus, based on the 3 in vitro experiments it is apparent that Pro-2023, Pro-4006, Pro-4011, Pro-4047, Pro-4051 and Pro-4051a behave as effective cysteine prodrugs.

The target of assay [3] is T1, System xc−. As to the kind of experiment: 14C-cystine uptake in human glial cells from brain astrocytoma (1321N1). Type of assay: cell-based. The conditions noted are these: 1321N1 cells. The procedure:
The goal of these experiments was to determine ^14C-cystine uptake.
The screening of compounds was performed using an in vitro culture system of human glial cells from brain astrocytoma (1321N1). Cells were plated on 24 well plates coated with poly-D-lysine and laminin and grown in a balanced salt solution supplemented with 5% heat inactivated horse serum, 5% fetal bovine serum, 2 mM glutamine and glucose (total 21 mM). Cultures were maintained in humidified 5% CO2 incubators at 37° C. for 3-4 days before experiments were performed, at this time the cultures has formed a single confluent layer. For experiments, cultures were washed 3 times into a Na-free HEPES and HCO3^− buffered balanced salt solution. After 1 hour, the test compounds are added. Following a three hour incubation, ^14C-cystine (0.025 mCi/mL) was then added for 20 minutes. Following the ^14C-cystine exposure, cultures were washed 3 times with ice cold HEPES buffered saline solution and dissolved in 250 μl sodium dodecyl sulfate (0.1%). An aliquot (200 μl) was removed and added to scintillation fluid for counting. Values were normalized to ^14C-cystine uptake in untreated controls on the same experimental plate.

The test system of the next assay is Rats. The experiment in a line: Elevated-plus maze. The conditions noted are these: 10 mg/kg PO. Type of assay: in vivo. The protocol:
Rats were tested in a standard elevated plus maze; testing occurred in a dimly illuminated room using only two lights mounted over the maze. Animals were allowed to habituate to the room for at least one hour prior to treatment. One hour prior to testing, rats received a compound of the present invention (0-30 mg/kg, P.O.). For testing, the rat was placed in the elevated plus maze for five minutes, alternating the starting position between facing an open arm and facing a closed arm. The session was recorded and an observer blind to treatment recorded the number of explorations, entries and time spent in the open arm. Explorations were defined as the rat placing two feet into an open arm without fully entering said arm. Entries were defined as the rat placing all four feet in an open arm. Time of entry in the open arm was recorded from the time the rat placed four feet in the open arm until two of the rats' feet entered the open square.

As to `CC(=O)N[C@@H](CSC(C)(C)c1ccccc1)C(N)=O` [Pro-4006, (2R)-2-Acetamido-3-[(2-phenylpropan-2-yl)sulfanyl]propanamide], the “increase in 3H-glutamate release” value on System xc− [1] (30 μM, at 30 minutes) stood at 35%. In assay [2] (10 μM compound), the “intracellular cysteine, times that of the control” value (“intracellular cysteine, times that” for short) is reported as “approximately 3.5 times” and the intracellular cysteine concentration turned out to be 0.07 µM. The “decrease in 14C-cystine uptake” value at System xc− [3] (30 μM (most effective concentration), three hour incubation) is recorded as “approximately 45%”.
On to `O=C(SC[C@H]1C(=O)NCC(=O)N1Cc1ccccc1)c1ccccc1` [Pro-4011, (6R)-6-[(benzoylsulfanyl)methyl]-1-benzylpiperazine-2,5-dione], for which, on System xc− [1] (100 μM, at 3 hours), the “increase in 3H-glutamate release” value is given as 75%. In assay [2] (10 μM compound), the “intracellular cysteine, times that” value was “approximately 1.16 times” and the intracellular cysteine concentration is 0.138 µM. Also, the “increase in 14C-cystine uptake” value at System xc− [3] (100 μM (most effective concentration), three hour incubation) is “approximately 75%”.
Take `CC(=O)N[C@@H](CSC(=O)c1ccc(C)cc1)C(N)=O` [Pro-4051a, (2R)-2-acetamido-3-(4-methylbenzoylsulfanyl)propanamide]: the “increase in 3H-glutamate release” value on System xc− [1] (1000 μM, at 30 minutes) was “approximately 180%”. Moreover, in assay [2] (100 μM compound), the “intracellular cysteine, times that” value was “approximately 3 times” and the intracellular cysteine concentration was determined as 0.21 µM. The “inhibition of 14C-cystine uptake (in words)” value against System xc− [3] (3 hour incubation) is recorded as “did not produce a substantial inhibition”. The “increase of time on the open arms over control” value in the assay with Rats is given as “not a significant increase over control”. In addition, in the assay on Rats (one hour prior to testing, five minute session), the “time spent on the open arms” value is reported as “around 22 seconds”.

The record behind these values is patent US10961187B2, “Substituted N-acetyl-L-cysteine derivatives and related compounds” (Promentis Pharmaceuticals, Inc., priority 2013, dated 2021).
